From US11952431B2, “Neutrophil-binding peptides” (YISSUM RESEARCH DEVELOPMENT COMPANY OF THE HEBREW …, priority 2020, dated 2024)
Entries after “also recorded” stand apart in the source; their conditions may differ.

What was measured:
neutrophils [1] = experiment: Doublet analysis of flow cytometry data for crosslinking of neutrophils; format: cell-based, mouse
Method: In order to rule out that there is a crosslinking between neutrophils when incubating with the LQI tetramer-SA-complex, flow cytometry data was analyzed to assess if there was an increase in doublet cells after incubation with the LQI tetramer-SA-complex. It is possible to examine the light scatter plots and compare the height signal of a voltage pulse (SSC-H, FSC-H) to the area values (SSC-A, FSC-A; A=Height*Width). If a doublet passes the laser beam in the flow cytometer, the width of the pulse signal (corresponds to time) will increase and therefore the value for the area (SSC-A and FSC-A) will increase. By comparing e.g. SSC-H and SSC-A it is possible to identify doublets because they are outliers in the blot.

neutrophils [2] = experiment: LQI tetramer alone or 16-LQI binding to WBCs, flow cytometry; design: species or system mouse; settings: WBCs from 4T1-tumor bearing mice, 30 min at 4° C.
Method: (§1) After washing, the cells were stained with 50 μl 3.3 μg/ml of Streptavidin-Cy3 (SA-Cy3).
(§2) “Tetramer-Streptavidin Complex”:1 μl of the 309 μM stock solution of the tetrameric peptide was preincubated with 300 μl of 3.3 μg/ml SA-Cy3 for 30 min at RT. 100 μl of LQI tetramer-SA-Cy3 mix was then used to stain 0.5×10^6 cells.
(§3) The cells were washed and analyzed by flow cytometry.

other WBC = experiment: as above; design: species or system mouse; settings: WBCs from 4T1-tumor bearing mice, 30 min at 4° C.
Method: as §1, §2, §3

neutrophils [3] = experiment: Confocal imaging of 16-LQI with Gr-1 neutrophils; format: cell-based, mouse
Method: FIGS. 2A-I: (2A) Schematic representation of the structure of a tetrameric LQI. […] (2E) Representative histogram showing the percent binding of 16-LQI to each WBC population in healthy Balb/C mice following ex vivo incubation and staining with Streptavidin-Cy3, as analyzed by flow cytometry. *=gating based on light scatter. […] Ly6G^+ population represent HDN and Ly6G− cells are other WBCs. […] (2I) Representative image of confocal microscopy with Gr-1 neutrophils (green) bound by the 16-LQI (red).

CD177 [4] = biological target: T1, CD177 (Mus musculus, UniProt Q8R2S8); experiment: STORM imaging of CD177 and 16-LQI on a neutrophil; format: binding; design: endogenous in cells; host or cells: murine neutrophils
T1 sequence (Q8R2S8 22-817): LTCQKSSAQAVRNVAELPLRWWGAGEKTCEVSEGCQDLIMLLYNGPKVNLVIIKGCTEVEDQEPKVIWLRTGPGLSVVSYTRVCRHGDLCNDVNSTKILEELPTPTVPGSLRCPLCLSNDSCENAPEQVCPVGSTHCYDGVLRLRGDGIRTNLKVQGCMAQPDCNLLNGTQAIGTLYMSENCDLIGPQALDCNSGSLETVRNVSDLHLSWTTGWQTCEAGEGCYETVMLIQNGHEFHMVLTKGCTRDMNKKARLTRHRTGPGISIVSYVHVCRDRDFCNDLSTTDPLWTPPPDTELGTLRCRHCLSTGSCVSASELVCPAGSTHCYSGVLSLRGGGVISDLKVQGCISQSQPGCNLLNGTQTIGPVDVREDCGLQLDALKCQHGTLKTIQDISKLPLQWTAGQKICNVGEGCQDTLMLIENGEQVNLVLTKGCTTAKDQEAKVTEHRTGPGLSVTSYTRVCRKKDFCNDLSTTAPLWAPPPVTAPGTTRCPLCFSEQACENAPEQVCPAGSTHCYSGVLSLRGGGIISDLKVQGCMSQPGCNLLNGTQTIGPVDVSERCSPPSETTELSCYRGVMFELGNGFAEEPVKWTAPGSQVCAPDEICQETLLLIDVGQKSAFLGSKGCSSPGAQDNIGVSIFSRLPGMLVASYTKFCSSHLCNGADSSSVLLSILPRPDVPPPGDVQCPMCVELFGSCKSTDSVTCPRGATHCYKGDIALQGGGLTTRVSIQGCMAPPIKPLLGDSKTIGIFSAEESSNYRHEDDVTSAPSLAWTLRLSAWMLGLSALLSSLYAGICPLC
Description: (§4) (21C-D) Representative dot plots of isolated WBC stained with (21C) Ly6G and CD177 or (21D) CD177 and 16-LQI. […] (21F) Representative STORM imaging of a single neutrophil with staining of CD177 (green) and 16-LQI (red), overlay with brightfield (left) or DAPI staining of nucleus (right). (21G) Quantification of CD177 and 16-LQI interaction for image depicted in (E) using the ImageJ Interaction Factor plugin.

[5] = test system: circulating CD177+ cells (neutrophils); experiment: Flow cytometry of WBC stained for CD177 and 16-LQI; format: binding, mouse
Description: as §4

[6] = test system: murine neutrophils (HDNs from 4T1-tumor bearing mice); experiment: Titration of binding to purified HDNs, flow cytometry; design: species or system mouse
Method: Analysis was performed by flow cytometry.

circulating neutrophils = experiment: Ex vivo binding to circulating neutrophils of healthy and tumor bearing mice; design: species or system mouse
Method: 0.5×10^6 purified HDNs were stained in 100 μl of preincubated 3.3 μg/ml 16-LQI-Cy3 solution for 30 min at 4° C. […] After staining, cells were washed and analyzed by flow cytometry.

[7] = test system: PMA stimulated ROS production in neutrophils; experiment: PMA induced ROS production after pretreatment with DPI or loaded nanoparticles; format: cell-based; settings: pretreated 3 hrs with 10 ul NP or 1 uM free DPI, then 50 nM PMA
Method: PLGA NPs are known to gradually degrade within the cell, releasing any encapsulated payload. Therefore, whether neutrophil degranulation ROS production could be modulated by encapsulating small molecule inhibitors within neutrophil specific NPs (NSNPs) was tested. […] DPI was loaded in the LQI-coated nanoparticles using a single emulsion encapsulation process. Then, neutrophils were pretreated for 3 hrs with 10 ul empty NP (Empty NP), 10 ul DPI-loaded NP (NP+DPI) or 1 uM free DPI. After one wash, neutrophils were stimulated with 50 nM PMA to induce ROS production. Positive control for PMA induction were neutrophils pretreated with vehicle (empty NP). Negative control (Cont.) were untreated neutrophils.

CD177 [8] = biological target: T1, CD177; settings: neutrophil lysate 3 h, mass spectrometry
Method: After washing, the bound proteins were eluted by incubating the beads for 10 min at 95° C. in protein sample buffer containing beta-mercaptoethanol. The gel was stained using silver staining. Lanes of the eluates of peptide- and control-beads were cut out and analyzed by mass spectrometry.

[9] = test system: neutrophils (HDNs) from 4T1 tumor bearing Balb/C mice
Method: 800 μl of 2% FCS/RPMI medium were placed into the 24-well plate, then Millicell® cell culture inserts with a pore size of […] were placed into the wells and allowed to soak for 5 min. HDNs were suspended to a density of 250,000 cells/ml in 2% FCS/RPMI and 200 μl of the cell suspension were placed into the upper chamber of the transwell insert. Migration was stimulated by addition of […] CXCL2 to the bottom chamber of the wells (consider V=800 μl), and peptide was added to HDN in the upper chamber in two different concentrations (3.09 μM or 309 nM considering […]). Assay was stopped after 1.5 hr and inserts were removed with a forceps. Each condition was tested in triplicate. 5 pictures were taken per well at the same coordinates (middle, top, bottom, left, right). Cells per field of view were counted using ImageJ.
The purified HDNs were placed in the upper chamber of a transwell (pore size 5 μm) in 2% FCS/RPMI medium. The lower chamber contained either only 2% FCS/RPMI medium or the chemokine CXCL2 to induce neutrophil migration. […] The assay was stopped after 1.5 h incubation, five pictures of each well were taken, counted and averaged. The experiment was done in triplicates.

[10] = test system: 4T1 cancer cells co-cultured with HDNs
Method: In vitro luciferase assay to monitor the anti-tumor activity of isolated neutrophils (‘Killing Assay’): 5,000 luciferase-labeled 4T1 breast carcinoma cells were seeded in 100 μl OptiMem medium containing 2% heat-inactivated FCS in each well of a white 96-flat-bottom well plate. 24 hours after seeding the tumor cells, 1×10^5 HDNs purified from the circulation of 4T1-tumor-bearing mice were added in 50 μl OptiMem with 2% FCS. The co-culture was incubated overnight. Control wells were incubated in 50 μl medium without neutrophils. Multiple repeats (12 wells) were done of each experimental setting. The supernatant was aspirated and 50 μl of cell culture lysis buffer were added (Promega). The plate was incubated for 15 min on an orbital shaker and then read in the plate-reader. Well-wise 50 μl of in-house prepared luciferase assay solution was injected during the measurement, and chemiluminescence was read for 10 sec per well. % tumor lysis was calculated by the following formula: % tumor lysis=(1−[luminescence of samples with neutrophils]/[luminescence of samples in medium])×100%.
In more details, 5.000 luciferase-labeled 4T1 breast carcinoma cells were cultured for 18 hours. […] The next day, luciferin dependent chemiluminescence was measured and the percentage of killing was calculated compared to control wells that were not cultured with HDNs. […]

[11] = test system: tumor-associated neutrophils (TANs); settings: TANs from 4T1 tumors, 30 min at 4° C.
Description: After staining, cells were washed and analyzed by flow cytometry.

monocytes or lymphocytes = experiment: Binding of peptide-presenting phage to WBC of 4T1 tumor bearing mice (anti-M13 PE, flow cytometry); design: species or system mouse; settings: phage presenting the peptide
Method: (§5) FIGS. 1A-D: Validation of Phage Binding of Highest-Ranking Peptides Sequences Selected on Mouse Neutrophils. […] (SEQ ID NO: 9) peptide to neutrophils (Ly6G+CD11b+, red histogram) and other WBC (Ly6G−CD11b−, blue histogram) was evaluated using anti-M13 PE-labelled antibody and (1A) flow cytometry analysis or (1B) microscopy. (1C) Overview of LQI peptide constructs—the LQI peptide sequence on the phage is inserted within the protein VIII coat protein of the phage (LQI peptide in orange) and neighboring amino acid residues are depicted (recombinant LQI pVIII). An unlabeled, Cy5-labeled, biotin-labeled and the LQI peptide construct including neighboring amino acids from coat protein VIII as well as a glycine linker and fluorescein, were generated and tested for binding. (1D) Competition assay of LQI phage binding and LQI peptide constructs. Neutrophils were incubated with the LQI-presenting phage (black line) alone or with the LQI-presenting phage and different LQI peptide constructs at the same time (blue line). Phage binding to neutrophils was quantified using anti-M13-PE antibody (only M13-PE=dotted line).
(§6) The peptide having the best binding obtained in the screening was the peptide LQI, consisting of the amino acid sequence […] (SEQ ID NO: 9).

[12] = test system: neutrophils (Ly6G+CD11b+); experiment: as above; design: species or system mouse; settings: phage presenting the peptide
Method: as §5, §6

murine neutrophils = experiment: Phage-display screening of a peptide library on murine neutrophils; format: binding, mouse; settings: prevalence in the final eluate, average of 5 replicates
Method: A phage-display screening of a peptide library was conducted, in a similar way to a screen conducted by Mazzucchelli et al. (Blood, 1999, 93(5), 1738-1748). In the present screen, a library of pages displaying 10^12 different peptides on their VIII protein was used to identify peptides that bind to murine neutrophils. The peptides in the library were random sequences of 6-12 amino acids in linear or cyclic form (Ryvkin et al., 2018, Nucleic Acids Research, 2018, Vol. 46, No. 9 e52). The screen was conducted using murine Normal-Density Neutrophils (NDN) for positive selection, whereas monocytes and lymphocytes served for negative selection. Following 3 rounds of positive panning and 2 interlaced rounds of negative panning, the neutrophil affinity selected phages were eluted and sequenced (FIG. 11). The top-ranking enriched peptide sequences and their prevalence in the final eluate (average of 5 replicates) are presented in Table 3.

[13] = test system: murine neutrophils (HDNs from 4T1 tumor bearing Balb/C mice); experiment: Competition assay of LQI phage binding with synthetic LQI peptide constructs; design: species or system mouse; settings: peptide 20 min, then 10^10 LQI phages; M13-PE flow cytometry
Method: Several LQI monomeric peptide conjugates were synthesized by tagging the N-terminus of LQI peptide with Cy5, biotin or fluorescein (FIG. 1C). Competition assays were then performed in order to evaluate the binding of LQI and its conjugates to murine neutrophils. For the competition assays, 1×10^6 density-gradient purified HDNs from 4T1 tumor bearing Balb/C mice were incubated first with each of the synthetic peptides for 20 min, and later incubated with 10^10 phages presenting the LQI peptide on their surface. Phage binding was detected by flow cytometry with a M13-PE antibody.

murine CD177 = biological target: T2, murine CD177 (Mus musculus, UniProt Q8R2S8); experiment: Binding to HEK293T cells ectopically expressing CD177; settings: control versus CD177-overexpressing cells
T2 construct: expressed in transfected cells; host or cells: HEK293T
T2 sequence (Q8R2S8 22-817): T1 sequence (Q8R2S8 22-817)

16-LQI: LQI tetramer-streptavidin (SA) complex, a 16-mer of the LQI-peptide [Peptide 16-LQI]
percentage of doublets versus cells stained with only SA-Cy3 (neutrophils [1]): Differences were not detected | binding of neutrophils (neutrophils [2]): 100% | binding to other WBC (other WBC): ~10% | uptake seen by confocal imaging (neutrophils [3]): engulfed specifically by neutrophils | clusters in which CD177 and 16-LQI signals overlap (CD177 [4]): > 90% | binding to circulating CD177+ cells [5]: all circulating CD177+ cells (neutrophils) bind | affinity for neutrophils relative to LQI-tetramer alone [6]: more than 75 times | specificity to circulating neutrophils (Ly6G+ cells) (circulating neutrophils; mice bearing 4T1 tumors): strong specificity | binding to circulating neutrophils (circulating neutrophils; neutrophils isolated from healthy mice, ex vivo): 87%

c1ccc2c(c1)[I+]c1ccccc1-2 [DPI, diphenyleneiodonium chloride]
effect on PMA stimulated ROS production [7]: efficiently blocked; also recorded: completely blocked ROS production

(LQIQSWSSSP (SEQ ID NO: 9) Doa-Doa-C)4-(Mpa)-4-Lys2-Lys-beta-Ala-Lys(Biotin)-beta-Ala-OH [LQI tetramer]
binding of neutrophils (neutrophils [2]): ~100% | binding to other WBC (other WBC): ~50% | peptide/control ratio of CD177 in pulldown (CD177 [8]): 7.89 | Kd ([6]; purified HDNs, flow cytometry): 3.3 µM | effect on neutrophil migration ([9]; 3.09 μM and 309 nM in upper chamber, CXCL2 in lower chamber, 1.5 h): no significant effect on neutrophil migration | chemoattractant activity ([9]; migration towards media containing LQI-tetramer): does not itself act as a chemoattractant | effect on the ability of HDNs to kill cancer cells [10]: does not affect the ability of HDNs to kill cancer cells | binding efficiency to TANs [11]: 98% | binding to the different types of neutrophils (circulating neutrophils; summary FIG. 2H): very high efficiency

LQIQSWSSSP
binding of phage to monocytes or lymphocytes (monocytes or lymphocytes): no detectable binding | binding of phage to neutrophils [12]: 95% | Prevalence (%) (murine neutrophils): 28.4% | competition with LQI phage binding to neutrophils [13]: able to compete with the phage binding to neutrophils | binding to HEK293T cells (murine CD177): binds only to HEK293T cells ectopically expressing the murine CD177

LSIVSGSALNHL
Prevalence (%) (murine neutrophils): 2.9%

LTLVSERPMI
Prevalence (%) (murine neutrophils): 1.5%

STMTILGTGS
Prevalence (%) (murine neutrophils): 10.4%

TETSLRIVSTNP
Prevalence (%) (murine neutrophils): 4.1%
